Measured values reported in US5464865A, “4-aryl- and 4-arylthio-5-hydroxy-2(5H)-furanones as inhibitors of phospholipase A2” (Ortho Pharmaceutical Corporation, priority 1993, dated 1995).

Tests used:
PLA2 = conditions: literature; cited from earlier work
[1] = system: TPA-induced inflammation in the mouse ear; assay: Topical anti-inflammatory activity: TPA-induced inflammation (edema) in the mouse ear; type: in vivo, mouse (male CD-1); conditions: Mus musculus, @ 100 μg, 5-6 h after TPA
Method: The topical anti-inflammatory activity of the compounds is determined by measuring the degree of inhibition of TPA-induced inflammation in the mouse ear, using essentially the procedure of C. Van Arman, Clin. Pharmacol. Ther., 16, 900 (1974). Male CD-1 mice are used at seven to nine weeks of age. 12-O-tetradecanoylphorbol acetate ([…] in 20 μl of acetone) is dispensed onto the dorsum of the left ear of each mouse, and the right ear is left untreated. Ten mice so treated serve as the control group. […]
After five to six hours, the animals are sacrificed by CO2 inhalation, the ears are removed, and 7 mm circular punch biopsies of are taken from each ear and weighed. The difference in biopsy weight between treated and untreated ears is determined, and the degree of anti-inflammatory activity is expressed in terms of the percent inhibition of ear weight increase relative to the control group. In multiple-dose experiments, varying amounts of the compound to be tested are applied along with the TPA and the results are expressed as the ED50, the dose at which a 50% inhibition of weight gain is observed.

[2] = molecular target: T1, human platelet phospholipase A2 (Homo sapiens, UniProt P14555); assay: Inhibition of human platelet phospholipase A2 (14C-oleate E. coli substrate); type: biochemical; conditions: for IC50: pH 7.0, 37°, 60 min incubation, read-out: Inhibition of PLA2, IC50; for inhibition at 50 µM: read-out: Inhibition of PLA2, % Inhibition @ 50 μM
T1 construct: a preparation of human platelet phospholipase A2; from tissue; host or cells: human platelets
T1 sequence (P14555 21-144): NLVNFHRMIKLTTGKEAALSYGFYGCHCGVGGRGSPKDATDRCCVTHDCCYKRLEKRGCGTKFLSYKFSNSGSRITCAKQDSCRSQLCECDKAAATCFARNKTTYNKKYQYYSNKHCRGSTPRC
Method: The activity of the compounds of the invention against phospholipase A2 is determined using a preparation of human platelet phospholipase A2 with a specific activity of 180 nmol/min/mg as the enzyme source. Polypropylene 15-ml test tubes are utilized as the reaction vessels. All drug samples are run in duplicate, with "blank" and "control" (no test compound) groups run in triplicate. […] Test compounds are dissolved in DMSO, and diluted to a projected final concentration of either 50 or 10 μM in 550 μl HEPES buffer at pH 7.0. A 1:7 dilution of human platelet PLA2 in HEPES buffer (5 μl) is added to each test tube, followed by gentle vortexing for 3 seconds. The reaction tubes containing drug, buffer, and enzyme are preincubated for 15 min at 37°, followed by the addition of 25 μl of ^14 C-oleate E. coli substrate. Details regarding this substrate may be found in a publication by S. Ghosh and R. Franson, Biochem. Cell. Biol., 70, 43 (1992), and references therein.
The tubes are immediately vortexed at moderate speed for 3 sec, followed by a 60 min incubation at 37° in a shaking water bath. The reaction is stopped by the addition of 3 ml of a 1:2 chloroform-methanol mixture. Additional water (1.5 ml) and chloroform (1.0 ml) are added, followed by vortexing. The lower phase is removed with a polypropylene transfer pipette, and transferred to a 13×100 mm polypropylene test tube. The organic solvent is evaporated with a stream of nitrogen, the residue is redissolved in 30 μl of a 9:1 chloroform-methanol mixture, and the solution is spotted on a channeled polyester-backed silica gel TLC plate, such as those available under the trade name PE SIL G available from Whatman Inc, Clifton, N.J.
The plate is developed with an 80:20:1 mixture of petroleum ether-diethyl ether-acetic acid. […] The plate is scored above the origin, cut along the score with scissors, and the reactant (origin) and product portions of each channel are put into separate scintillation vials. To each vial is added a scintillation cocktail (15 ml), preferably that sold under the trademark ECOLUME by ICN Biomedicals, Irvine Calif. The vials are shaken vigorously for 5 sec, and the radioactive ^14 C in each vial is measured with a scintillation counter, which provides the counts-per-minute (cpm) for each sample. The obtained cpm values are corrected for the "blank" values.
The percentage of phospholipid hydrolyzed is calculated by the formula:
Phospholipid converted=100×cpm products / (cpm products+cpm
The inhibition of phospholipase A2 by the test compounds is expressed as a percent inhibition relative to the control group:
% Inhibition=[…]

IC50 [2] | inhibition at 50 µM [2] | SMILES | inhibition of PLA2 (PLA2) | nature of PLA2 inhibition (PLA2) | inhibition in vivo at 100 µg/ear [1]
 |  | CC1=C(CC/C(C)=C/CCC2=CCC(C3=CC(=O)OC3O)OC2O)C(C)(C)CCC1 (stereo not drawn) [Manoalide, manoalide] | potent inhibitor of PLA2 | irreversible nature of PLA2 inhibition | 
7 µM | 100% | CCCCC/C=C\C/C=C\CCCCCCCCOc1cccc(C2=CC(=O)OC2O)c1 (stereo not drawn) [Example 40, (Z,Z)-5-Hydroxy-4-((3-(octadeca-9,12-dienyl)oxy)phenyl)-2(5H)-furanone] |  |  | 80%
 | 47% | O=C1C=C(c2ccc(OCCOc3ccc4ccccc4c3)cc2)C(O)O1 (stereo not drawn) [Example 12, 5-Hydroxy-4-[4-(2-(2-naphthyloxy)ethoxy)phenyl]-2(5H)furanone] |  |  | 45%
22 µM | 73% | O=C1C=C(c2ccc(OCCCCCCOc3ccc4ccccc4c3)cc2)C(O)O1 (stereo not drawn) [Example 13, 5-Hydroxy-4-[4-(6-(2-naphthyloxy)hexyloxy)phenyl]-2(5H)furanone] |  |  | 0%

SMILES | IC50 [2] | inhibition at 50 µM [2] | inhibition of PLA2 (PLA2) | nature of PLA2 inhibition (PLA2) | inhibition in vivo at 100 µg/ear [1]
O=C1C=C(c2ccccc2)C(O)O1 (stereo not drawn) [Example 42, 5-Hydroxy-4-phenyl-2(5H)-furanone] |  | 9% |  |  | 45%
